Measured values taken from BindingDB's records for doi:10.1021/acs.jmedchem.7b00484 (University of Strathclyde, 2017).

Target: T1, Inhibitor of nuclear factor kappa-B kinase subunit beta (Homo sapiens, UniProt O14920)
T1 sequence (O14920 whole entry): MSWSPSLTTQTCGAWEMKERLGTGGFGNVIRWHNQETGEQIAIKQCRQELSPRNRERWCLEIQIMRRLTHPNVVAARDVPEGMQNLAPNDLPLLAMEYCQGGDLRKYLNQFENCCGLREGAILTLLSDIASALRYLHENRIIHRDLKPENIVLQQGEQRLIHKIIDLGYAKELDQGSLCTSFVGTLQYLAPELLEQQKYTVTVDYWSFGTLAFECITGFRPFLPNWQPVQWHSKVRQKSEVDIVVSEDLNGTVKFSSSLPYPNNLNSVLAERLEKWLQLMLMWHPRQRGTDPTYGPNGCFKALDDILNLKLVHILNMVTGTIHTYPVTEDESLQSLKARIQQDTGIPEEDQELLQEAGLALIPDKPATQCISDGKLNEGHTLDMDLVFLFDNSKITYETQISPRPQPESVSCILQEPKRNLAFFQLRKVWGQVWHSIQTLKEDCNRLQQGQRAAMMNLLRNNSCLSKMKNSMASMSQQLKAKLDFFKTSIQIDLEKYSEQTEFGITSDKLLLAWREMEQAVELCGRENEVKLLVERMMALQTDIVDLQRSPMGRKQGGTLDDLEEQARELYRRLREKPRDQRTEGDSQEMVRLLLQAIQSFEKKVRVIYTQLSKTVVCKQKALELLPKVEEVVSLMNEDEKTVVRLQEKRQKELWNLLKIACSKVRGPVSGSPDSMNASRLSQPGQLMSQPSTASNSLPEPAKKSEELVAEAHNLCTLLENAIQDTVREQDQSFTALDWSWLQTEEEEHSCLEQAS
Assay: ChEBML_1690031
Procedure: Inhibition of recombinant full length human IKKbeta expressed in baculovirus infected sf9 insect cells using biotinylated IkBalpha as substrate after 60 mins by DELFIA

Ki: > 30 µM
SMILES: N#Cc1c[nH]c2nc(N)nc(N[C@@H]3CC[C@@H](O)[C@H]3O)c12
